We go through 8 molecules from PubChem BioAssay (NCI).

Among the test systems are UACC-257 melanoma; SK-MEL-2 melanoma; CCRF-CEM leukemia; HT29 colon; NCI-H226 lung; OVCAR-5 ovarian; SNB-75 CNS; T-47D breast; HL-60(TB) leukemia; PC-3 prostate.
Common to all, as to assay: NCI anticancer screen, dose series, 48 h

Each structure is given as a SMILES string. “And” between values parts separate entries of the source, which are not always exact repeats. Identical values can stand only once.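 Assay format: 96-well plates, 48-hour exposure. GI50 = concentration required for 50% inhibition of growth. TGI denotes the concentration required for complete inhibition of growth.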

On to `Cc1cc(O)c(O)c(Oc2cc(C)cc(O)c2O)c1`, for which the TGI is more than 100 µM in the experiment on UACC-257 melanoma; more than 100 µM with SK-MEL-2 melanoma; 7.46 µM in the experiment with CCRF-CEM leukemia; 41.1 µM in the experiment on HT29 colon; 75.1 µM in the experiment with NCI-H226 lung; more than 100 µM in the experiment on OVCAR-5 ovarian. Moreover, the TGI in the experiment with SNB-75 CNS is more than 100 µM; in the experiment on T-47D breast, 84.9 µM; with HL-60(TB) leukemia, 5.54 µM; in the experiment with PC-3 prostate, more than 100 µM.
Consider `Cc1csc(-c2ccc3c(c2)COC3(CCCN(C)C)c2ccc(F)cc2)c1` (stereo not given), for which the GI50 was 1.81 µM in the experiment on UACC-257 melanoma; 1.96 µM in the experiment on SK-MEL-2 melanoma; 2.21 µM with CCRF-CEM leukemia; 1.92 µM with NCI-H226 lung; 1.63 µM in the experiment on OVCAR-5 ovarian; 1.2 µM in the experiment on SNB-75 CNS. Moreover, the results for the GI50 in the experiment on T-47D breast, in the experiment with HL-60(TB) leukemia and in the experiment with PC-3 prostate were 1.85 µM, 1.97 µM and 1.81 µM, respectively. For the same molecule, the TGI in the experiment on UACC-257 melanoma was found to be 3.76 µM; in the experiment on SK-MEL-2 melanoma it was 3.95 µM; in the experiment with CCRF-CEM leukemia, 5.35 µM; in the experiment on NCI-H226 lung it was 3.76 µM; in the experiment on OVCAR-5 ovarian, 3.05 µM; with SNB-75 CNS, 2.61 µM. Besides, the TGI with T-47D breast turned out to be 4.62 µM; with HL-60(TB) leukemia, 4.27 µM; in the experiment with PC-3 prostate, 3.45 µM.
In the case of `O=C(Nc1ccc(O)c(NS(=O)(=O)c2ccc(F)cc2)c1)c1ccc(-c2ccccc2)cc1`, the GI50 with UACC-257 melanoma was 5.71 µM; in the experiment on SK-MEL-2 melanoma, 15.1 µM; in the experiment on CCRF-CEM leukemia, 2.96 µM; in the experiment on HT29 colon, 14.1 µM; with NCI-H226 lung it was 4.96 µM; in the experiment on OVCAR-5 ovarian, 13.6 µM. Moreover, the GI50 with SNB-75 CNS is 2.68 µM; in the experiment on T-47D breast it was 3.07 µM; in the experiment with HL-60(TB) leukemia, 1.4 µM; with PC-3 prostate, 3.84 µM. Besides, the TGI with UACC-257 melanoma came to 46.6 µM; with SK-MEL-2 melanoma, 46.2 µM; in the experiment on CCRF-CEM leukemia, 13 µM; in the experiment on HT29 colon, 30.9 µM; in the experiment on NCI-H226 lung, 23.8 µM; in the experiment on OVCAR-5 ovarian, 27 µM. Further, the TGI with SNB-75 CNS is 15.7 µM; with T-47D breast, 18.4 µM; in the experiment on HL-60(TB) leukemia it was 5.34 µM; in the experiment on PC-3 prostate it was 16.7 µM.
With `O=C(Nc1ccc(Cl)cc1F)c1cc(Cl)ccc1O`, the GI50 in the experiment on UACC-257 melanoma is 0.482 µM; with SK-MEL-2 melanoma, 0.338 µM; with CCRF-CEM leukemia, 1.62 µM; in the experiment on HT29 colon, 3.2 µM; with NCI-H226 lung, 0.429 µM; in the experiment on OVCAR-5 ovarian, 2.74 µM. Besides, the GI50 is 0.456 µM with SNB-75 CNS, 0.253 µM in the experiment on T-47D breast, 0.389 µM with HL-60(TB) leukemia and 1.28 µM in the experiment with PC-3 prostate. Besides, the TGI in the experiment with UACC-257 melanoma was 6.89 µM; in the experiment with SK-MEL-2 melanoma, 1.72 µM; with CCRF-CEM leukemia it was more than 44.9 µM; with HT29 colon it was more than 31.2 µM; with NCI-H226 lung, 7.21 µM; in the experiment with OVCAR-5 ovarian, more than 100 µM. For the same molecule, the TGI in the experiment with SNB-75 CNS was 3.77 µM; in the experiment with HL-60(TB) leukemia, 1.96 µM; with PC-3 prostate, 5.64 µM.
As for `CNC(=O)c1c(NC(=O)c2ccc(C(C)C)cc2)sc2c1CCC(=O)C2`, the GI50 is 2.05 µM with UACC-257 melanoma; 1.6 µM with SK-MEL-2 melanoma; 0.146 µM with CCRF-CEM leukemia; 0.338 µM in the experiment with HT29 colon; 1.73 µM in the experiment with NCI-H226 lung; 0.496 µM in the experiment with OVCAR-5 ovarian. Also, the GI50 in the experiment on SNB-75 CNS is 1.05 µM; in the experiment with T-47D breast, 0.341 µM; in the experiment with HL-60(TB) leukemia it was 0.303 µM; with PC-3 prostate it was 0.152 µM. Besides, the TGI was 6.35 µM in the experiment with UACC-257 melanoma; 5.96 µM with SK-MEL-2 melanoma; 1.6 µM in the experiment on HT29 colon; 5.29 µM in the experiment with NCI-H226 lung; 1.93 µM with OVCAR-5 ovarian; 3.53 µM with SNB-75 CNS. The TGI was 2.3 µM in the experiment with T-47D breast, 2.15 µM with HL-60(TB) leukemia and 1.32 µM in the experiment with PC-3 prostate.
As for `COc1cc(/C=N/Nc2ncnc3c2cnn3Cc2ccccc2)ccc1O`, the GI50 in the experiment on UACC-257 melanoma is more than 16.7 µM; in the experiment with SK-MEL-2 melanoma, 16.7 µM; in the experiment on CCRF-CEM leukemia, more than 6.7 µM; with HT29 colon it was 14.9 µM; in the experiment on NCI-H226 lung, 10.3 µM; with OVCAR-5 ovarian, more than 25 µM. Besides, the GI50 in the experiment with SNB-75 CNS is 3.29 µM; in the experiment with T-47D breast, 9.57 µM; in the experiment with HL-60(TB) leukemia, more than 18.5 µM; with PC-3 prostate, 11.7 µM. The TGI with UACC-257 melanoma, in the experiment on SK-MEL-2 melanoma, with CCRF-CEM leukemia, with HT29 colon, in the experiment on NCI-H226 lung and with OVCAR-5 ovarian was more than 25 µM in each case. Further, the TGI with SNB-75 CNS is 11.4 µM; with T-47D breast it was more than 25 µM; with HL-60(TB) leukemia, more than 25 µM; in the experiment with PC-3 prostate, more than 25 µM.
In the case of `CN1CCN(CCCN2c3ccccc3Sc3ccc(C(F)(F)F)cc32)CC1`, the TGI in the experiment with UACC-257 melanoma was 3.73 µM and 3.75 µM and 6.55 µM; in the experiment with SK-MEL-2 melanoma it was 4.26 µM and 15.4 µM and 15.6 µM; with CCRF-CEM leukemia, 6 µM and 6.52 µM and 26.5 µM; in the experiment on HT29 colon, 3.06 µM and 7.61 µM and 5.88 µM; with NCI-H226 lung it was 6.41 µM and 32.8 µM and 32.2 µM; in the experiment on OVCAR-5 ovarian it was 4.28 µM and 24.9 µM and 23.2 µM. For the same molecule, the TGI in the experiment with SNB-75 CNS is 22.7 µM and 16.8 µM and 20.8 µM; in the experiment on T-47D breast, 3.63 µM and 20.2 µM and 23.1 µM; in the experiment on HL-60(TB) leukemia, 4.92 µM and 17.7 µM and 22.7 µM; in the experiment on PC-3 prostate, 8.42 µM and 16.8 µM and 17.5 µM. The GI50 is 2.34 µM with SK-MEL-2 melanoma; 2.35 µM and 2.17 µM and 8.25 µM with CCRF-CEM leukemia; 1.53 µM with HT29 colon; 2.16 µM in the experiment with NCI-H226 lung; 1.99 µM with OVCAR-5 ovarian; 6.4 µM in the experiment with SNB-75 CNS. Also, the GI50 with T-47D breast is 1.6 µM; in the experiment on HL-60(TB) leukemia, 2.78 µM; in the experiment on PC-3 prostate it was 2.31 µM.
`O=C1C(Cl)=C(Nc2ccccn2)C(=O)c2ccccc21`: the GI50 is 1.91 µM in the experiment with UACC-257 melanoma; 3.05 µM in the experiment on SK-MEL-2 melanoma; 3.79 µM in the experiment on CCRF-CEM leukemia; 26.2 µM in the experiment with HT29 colon; 1.92 µM in the experiment on NCI-H226 lung; 7.42 µM in the experiment with OVCAR-5 ovarian. In addition, the GI50 in the experiment with SNB-75 CNS is 2 µM; in the experiment on T-47D breast, 3.1 µM; with HL-60(TB) leukemia, 2.52 µM; with PC-3 prostate, 2.27 µM. The TGI with UACC-257 melanoma amounted to 3.84 µM; with SK-MEL-2 melanoma, 6.66 µM; in the experiment with CCRF-CEM leukemia, 12.5 µM; in the experiment on HT29 colon, 62.5 µM; in the experiment on NCI-H226 lung, 5.49 µM; in the experiment with OVCAR-5 ovarian, 23.2 µM. In addition, the TGI with SNB-75 CNS was found to be 4.49 µM; in the experiment with T-47D breast, 10.2 µM; in the experiment on HL-60(TB) leukemia, 5.83 µM; in the experiment with PC-3 prostate, 8.35 µM.
